Assay results: PubChem BioAssay (NCI)
Values joined by “and” are separate entries in the source; they are usually repeats but may differ in a detail not shown here. Equal entries are not always repeated.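 Dose response: 5 concentrations. Exposure: 48 h. Format: 96-well plates. Endpoint: linear interpolation; highest concentration if not reached. GI50 = concentration required for 50% inhibition of growth. TGI: total growth inhibition.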

Columns and labels:
Assay in all cases: NCI anticancer screen, dose series, 48 h
[1] = tested on: HCT-15 colon
[2] = tested on: MALME-3M melanoma
[3] = tested on: MDA-MB-435
[4] = tested on: OVCAR-8 ovarian
[5] = tested on: PC-3 prostate
[6] = tested on: SK-MEL-5 melanoma
[7] = tested on: U251 CNS
[8] = tested on: UACC-62 melanoma
[9] = tested on: UO-31 renal
[10] = tested on: MDA-MB-231 breast

Structure (SMILES)	TGI [1] [µM]	TGI [2] [µM]	TGI [3] [µM]	TGI [4]	TGI [5] [µM]	TGI [6] [µM]	TGI [7] [µM]	TGI [8] [µM]	TGI [9] [µM]	TGI [10] [µM]	GI50 [1] [µM]	GI50 [4] [µM]	GI50 [6] [µM]	GI50 [2] [µM]	GI50 [10] [µM]	GI50 [3] [µM]	GI50 [5] [µM]	GI50 [7] [µM]	GI50 [8] [µM]	GI50 [9] [µM]
O=C(NCCCCCCCCNC(=O)c1cccc2ccccc12)c1cccc2ccccc12	> 100	> 100	> 100	79.5 µM	> 100	> 100	45.6	> 79.9	27.4	–	–	–	–	–	–	–	–	–	–	–
CNC1C(O)C(OC2C(N)CC(N)C(OC3OC(C(C)O)C(O)C(O)C3N)C2O)OCC1(C)O (stereo unspecified)	> 100	–	> 100	> 100 µM	> 100	> 100	> 100	> 100	> 100	> 100	–	–	–	–	–	–	–	–	–	–
COc1ccc(/C(=N/NC(N)=O)C(c2ccc(OC)cc2)C2C(=O)Oc3ccccc32)cc1 (stereo unspecified)	> 100	> 100	–	> 100 µM	–	> 100	> 100	> 100	> 100	–	–	–	–	–	–	–	–	–	–	–
CC(=O)OC1CC2C(C)(C)C(=O)C=CC2(C)C2CCC3(C)C(c4ccoc4)OC(=O)C4OC43C12C (stereo unspecified)	35.4	–	–	53.9 µM	> 100	19.2	26.1	18.4	15.2	14.1	–	–	–	–	–	–	–	–	–	–
O=C1/C(=C/c2ccccc2)CN(C(=O)OCc2ccccc2)C/C1=C\c1ccccc1	20.8	> 46.4	–	9.39 µM and 20.3 µM	57.7	30.7	17.8	20.2	24	50.4	4.01	3.05	3.44	–	–	–	–	–	–	–
COc1cc(-c2cc(=O)c3cc(C)c(C)c(C(=O)O)c3o2)cc(OC)c1OC	> 100	> 100	–	> 100 µM	–	> 100	> 100	> 100	> 100	–	–	–	–	–	–	–	–	–	–	–
Cc1nc2n(c(=O)c1CCN1CCC(c3noc4cc(F)ccc34)CC1)CCCC2	> 50	> 50	> 50	> 50 µM	> 50	–	> 50	> 50	> 50	> 50	> 50	> 50	–	> 50	> 50	> 50	> 50	> 50	> 50	> 50
CN(C)c1n/c(=N/c2ncn[nH]2)ss1	> 100	> 100	–	> 100 µM	–	> 100	> 100	> 100	> 100	–	–	–	–	–	–	–	–	–	–	–
CC(C)(C)C(=O)O[C@@H]1COC2C(O)COC21 (stereo partly specified)	–	> 100	–	> 100 µM	–	> 100	> 100	> 100	> 100	–	–	–	–	–	–	–	–	–	–	–
Nc1nnc(Cn2c(-c3ccccc3)nc3ccc(Br)cc3c2=O)s1	> 100	–	> 100	41 µM	> 100	86.2	> 100	> 100	> 100	> 100	31.6	1.25	26.8	–	36.2	45.9	38.2	38.4	15.2	> 100
